According to patent US12303473B1 (priority 2023, dated 2025):
Like-named read-outs stand apart in the source and are kept apart here.

What was measured:
[1] = tested on: patients having Major Depressive Disorder who also suffer from Treatment Resistant Depression; assay: Example 3: study similar to Example 2 with two arms of 25 patients; format: in vivo, human; settings: 25 patients per arm
Experimental: A similar study to that of Example 2 is also conducted, except that the 50 patients are broken into two arms—one arm of 25 patients taking bupropion HCl XL and the other arm of 25 patients taking bupropion HBr XL.

[2] = APLENZIN 348 mg once-daily, 10-day dosing; cited from earlier work
[3] = tested on: patients having Major Depressive Disorder who also suffer from Treatment Resistant Depression; assay: Example 2: phase III double-blind active control Treatment Resistant Major Depressive Disorder study (MADRS), sequential HCl then HBr; format: in vivo, human; settings: N=50
Experimental: A phase III double-blind study is conducted on a subset of patients having Major Depressive Disorder who also suffer from Treatment Resistant Depression. Exclusion criteria for this study are any patients suffering from seizures, known hypersensitivity to bupropion, eating disorders, schizophrenia or bipolar disorder. Inclusion criteria for this study are adult patients ages 18 through 64 who have taken two oral antidepressants of adequate dose and duration in the current episode of Major Depressive Disorder. The study includes a total of fifty patients (N=50). Initially, all patients are given a two-week washout from a previous oral antidepressant or are not currently taking an oral antidepressant. The patients are administered once daily bupropion HCl XL 150 mg, which is flexibly dosed to 300 mg by day 4 and 450 mg by day 11, to the extent required for treatment response and/or as tolerated. The treatment is continued for a total of six weeks. After six weeks, there is a five-day bupropion HCl XL washout. Next, the patients are administered once daily bupropion HBr XL 174 mg, which is flexibly dosed to 348 mg by day 4 and 522 mg by day 11, to the extent required for treatment response and/or as tolerated. This part of the study is continued for a total of six weeks. Measures are assessed based on weekly changes on the Montgomery Asberg Depression Rating Scale (MADRS) from baseline on bupropion HCl compared to bupropion HBr. Also, side effects leading to discontinuation on bupropion HCl compared to bupropion HBr are considered. The primary endpoint of the study is significant change in MADRS by week 6 on bupropion HBr compared to bupropion HCl. A secondary endpoint is statistically significant change in MADRS by week 2 on bupropion HBr compared to bupropion HCl.

adult patients with TRD = settings: for depression rating based on mean PHQ-9 depression scores: "severe" at baseline, HBr after 2 weeks; for side effect: insomnia / side effect: anxiety / side effect: gastrointestinal upset: in vivo
Excerpt: In the regular course of Applicants' general outpatient psychiatry practice, Applicants see many patients who suffer from Major Depressive Disorder (MDD) and may not have responded to two or more oral antidepressant medications. Applicants routinely administer the brief and commonly used Patient Health Questionnaire-9 (PHQ-9) scale before starting a new treatment, two weeks after starting treatment to measure initial response, and periodically thereafter.
Once-daily, XL bupropion HCl received FDA approval for the treatment of MDD in 2003 and for Seasonal Affective Disorder (SAD) in 2006.
The following study protocol was approved by the WCG-IRB institutional ethics committee and conducted in accordance with principles set forth in the Helsinki Declaration. […] The PHQ-9 is a reliable and valid clinical and research tool that measures functionality and depression severity, whereby scores of 5, 10, 15, and 20 correspond to mild, moderate, moderately severe, and severe depression and a 5-point change is considered clinically meaningful. Statistical analysis was performed using a within-subject, 2-tailed t-test with a significance level of p<0.05.

SMILES	results of two-arm study compared to bupropion HCl XL [1]	peak plasma concentration and area under the curve vs bupropion HCl extended-release 300 mg (bioequivalence) [2]	side effects leading to discontinuation compared to bupropion HCl [3]	efficacy in TRD (MADRS change) compared to bupropion HCl ([3]; 174-522 mg once daily, six weeks)	speed of effect compared to bupropion HCl ([3]; MADRS by week 2)	depression rating based on mean PHQ-9 depression scores (adult patients with TRD; 30 adult TRD patients)	mean PHQ-9 score on XL bupropion HBr (adult patients with TRD; 30 adult TRD patients, after 2 weeks on mean dose 348 mg/day (range 174-522 mg/day) after direct switch from XL bupropion HCl, t=-8.63, p<0.00001 vs HCl)	change in PHQ-9 questions (1), (3), (4), (5) and (7) on XL bupropion HBr compared to XL bupropion HCl (adult patients with TRD; all patients in the study of Example 1, each question rated 0 to 3)	side effect: insomnia (adult patients with TRD; both, human) [patients]	side effect: anxiety (adult patients with TRD)	side effect: gastrointestinal upset (adult patients with TRD)	patient preference over the combination of bupropion HCl plus dextromethorphan (adult patients with TRD; subgroup of five patients who had previously failed the combination, due to improved antidepressant efficacy)	mean PHQ-9 score on XL bupropion HCl (adult patients with TRD; 30 adult TRD patients, mean dose 300 mg/day (range 150-450 mg/day), mean duration 88.8 weeks, PHQ-9 range 0-27, baseline 20.9±4.3)	side effect: anxiety (adult patients with TRD; both, human) [patients]	side effect: gastrointestinal upset (adult patients with TRD; both, human) [patients]
Br.CC(NC(C)(C)C)C(=O)c1cccc(Cl)c1 (centres unmarked) [XL bupropion HBr, bupropion hydrobromide]	same as in Example 2	equivalent	fewer side effects leading to discontinuation	more effective	works faster	mild (Scores of 5-9 indicate mild depression)	6.4±5.0	improving by at least one point	3	resolved	resolved	All five patients in this subgroup preferred once-daily XL bupropion HBr			
CC(NC(C)(C)C)C(=O)c1cccc(Cl)c1.Cl (racemic) [XL bupropion HCl, (±)-1-(3-chlorophenyl)-2-[(1,1-dimethylethyl)amino]-1-propanone hydrochloride]						moderately severe (Scores of 15-19 indicate moderately severe depression)			21				15.3±5.3	19	2
